Data: patent US20200255492A1, “LEPTIN PEPTIDES AND THEIR USE FOR TREATING NEUROLOGICAL DISORDERS” (UNIVERSITY OF DUNDEE, priority 2017, published 2020)

How the values were obtained:
[1] = test system: differentiated SH-SY5Y human neuronal cells; test: MTT assay of mitochondrial activity (cell viability); format: cell-based; settings: 10 nM; n=11
Description: (§1) The human neuroblastoma cell line, SH-SY5Y (ECACC, UK) was maintained in Dulbecco's Modified Eagle Medium supplemented with glucose ([…]) and 10% (v/v) cosmic calf serum (Fisher Scientific, UK) at 37° C. in a humidified atmosphere of 5% CO2, 95% air and allowed to reach 70-80% confluence before seeding. Cells (passage 10-18) were plated at 10 000 cells per well in 96 well tissue culture plates (Nunc, VWR, UK) and at a density of 2×10^5 cells in 35 mm dishes for protein extraction. To induce differentiation, cells were cultured in DMEM supplemented with glucose ([…]), 1% (v/v) cosmic calf serum and 10 μM retinoic acid for 5 days. Thereafter they were incubated in DMEM supplemented with glucose ([…]), serum replacement 2 (2%; Sigma, UK) and 18 μM 5-fluorodeoxyuridine to inhibit proliferation of undifferentiated cells. The 50% of the medium was changed every 2-3 days and pharmacological treatment was carried out 7 days after switching to this medium. Reagents used were (from Sigma UK unless stated) 0.1-10 nM human leptin and leptin (116-130); 0.1-10 nM leptin (22-56; Bachem; Switzerland); 10 nM leptin (116-121) leptin (117-122), leptin (124-129) or leptin (125-130; all Severn Biotech, UK); 5 μM copper chloride; […], 5 μM WP1066 or 50 nM wortmannin. All treatments were added to the culture at the same time and survival assays were carried out after 96 h treatment. Protein samples for signaling ELISA were extracted 3 h after exposure to the relevant reagents and for biomarker expression after 72 hours.
The concentration of lactate dehydrogenase (LDH) in the culture medium or the mitochondrial activity within cells was used to monitor the level of cell death, as previously (Oldreive and Doherty 2010). In certain experiments, a Crystal violet assay was used to assess total cell number. Cells were fixed in neutral buffered formalin and washed 3 times in PBS prior to staining with 0.01% crystal violet acetate for 5 min. Plates were washed 5-10 times in dH2O and cells solubilised in 100 μl dimethyl sulfoxide (DMSO) before reading the absorbance on a Biohit BP100 plate reader. For all assays, data is expressed as percentage relative to control, untreated wells to normalize for differences in plating density between individual experiments.
To confirm the findings of the LDH assay, cells were treated with Aβ1-42 alone or with a 10 nM of leptin, leptin (116-130) or the listed hexamers, and mitochondrial activity, as a measure of cell viability, determined by MTT assay. A significant increase in mitochondrial activity was detected following treatment with either leptin or leptin (116-130; both 10 nM). […] Thus for Aβ1-42-treated cells, 10 nM leptin and 10 nM leptin (116-130) increased mitochondrial activity by 32.6±5.2% and 40.9+5.8% respectively compared with Aβ1-42 alone (n=11; P<0.001; FIG. 11B); an effect that was mirrored by 10 nM leptin (116-121) and leptin (117-122); 43.61±3.9% and 40.5±3.7*% (n=11; P<0.001; FIG. 11B), but not by 10 nM leptin (124-129) or leptin (125-130) (n=11; P>0.5; FIG. 11B). This reinforces the findings from the LDH assay that similar to either leptin or leptin (116-130), treatment with leptin (116-121) or leptin (117-122) reduces neuronal death in response to AD-linked toxins in vitro.

[2] = test system: phosphorylated tau (p-tau); test: ELISA of phosphorylated tau relative to α-tubulin; format: cell-based, human; settings: 10 nM; n=5
Description: as §1
Protein from cultures was extracted into 500 μl Tris-buffered saline containing protease inhibitor cocktail, and a Bradford assay used to determine protein concentration. Samples were diluted to give equal loading onto ELISA plates. Commercially available ELISA kits were used in accordance with the manufacturer's instructions to determine the ratio of pan-STAT3 to phospho-STAT3 (Sigma, UK) and pan-Akt to phospho-Akt (Sigma, UK) and the levels of alpha-tubulin and phosphorylated tau (Sigma, UK). Each protein sample was run in duplicate using samples derived from at least 5 biological repeats.
Hyper-phosphorylation of tau is the underpinning mechanism of the development of neurofibrillary tangles—one of the key pathological feature of AD. Human SH-SY5Y neuronal cells were exposed to Aβ1-42 alone or in combination with 10 nM leptin, leptin (116-130), leptin (116-121), leptin (117-122), leptin (124-129) or leptin (125-130). Protein was extracted for ELISA assay and the ratio of p-tau to the house-keeping protein α-tubulin determined (FIG. 11C). […] Thus for Aβ1-42-treated cells, 10 nM leptin and 10 nM leptin (116-130) reduced p-tau expression by 56.2±8.0% and 58.9+4.6% respectively compared with Aβ1-42 alone (n=5; P<0.001; FIG. 11C); an effect that was mirrored by 10 nM leptin (116-121) and leptin (117-122); 58.1±4.0% and 45.48±6.1% (n=5; P<0.001 and P<0.01 respectively; FIG. 11C), but not by 10 nM leptin (124-129) or leptin (125-130)(n=5; P>0.5; FIG. 11C).

[3] = test system: SH-SY5Y neuronal cultures; test: Thioflavin S staining of amyloid after seeding with Aβ1-42; format: cell-based, human; settings: 96 hours after seeding with 1 μM Aβ1-42; leptin116-130 1 nM
Description: The human neuroblastoma cell line, SH-SY5Y (ECACC, UK) was maintained in Dulbecco's Modified Eagle Medium supplemented with glucose ([…]) and 10% (v/v) cosmic calf serum (Fisher Scientific, UK) at 37° C. in a humidified atmosphere of 5% CO2, 95% air and allowed to reach 70-80% confluence before seeding. Cells (passage 10-18) were plated at 2×10^5 cells on 13 mm borosilicate class coverslips or at 10 000 cells per well in 96 well tissue culture plates (Nunc, VWR, UK) prior to treatment. Reagents used were (from Sigma UK unless stated) 1 nM human leptin, leptin (116-121), leptin (117-122) and leptin (117-125); 0.0001-1 nm murine leptin fragments leptin (116-121), leptin (117-122) and leptin (116-130); 100 μM 6-hydroxydopamine; 10 μM CuCl2; […]
After 96 hours, cultures were fixed for 15 minutes in neutral buffered formalin, washed in phosphate buffered saline and stained with 0.05% Thioflavin S for 10 minutes prior to washing in phosphate buffered saline and mounting for visualisation on a fluorescent microscope. Relative fluorescent intensity per cell was determined using post hoc image analysis with Fiji software. Quantitative data is presented as the mean fluorescence per cell relative to control untreated cells.

| Substance | increase in mitochondrial activity compared with Aβ1-42 alone [1] [%] | reduction of p-tau expression compared with Aβ1-42 alone [2] [%] | thioflavin S fluorescent signal per cell (amyloid accumulation) [3] |
| --- | --- | --- | --- |
| leptin: the metabolic hormone leptin, whole (full length) leptin molecule; human leptin from Sigma in SH-SY5Y work | 32.6±5.2 | 56.2±8.0 |  |
| CSLPQT (listed as Mus musculus) [leptin (117-122)] | 40.5±3.7 | 45.48±6.1 | prevent the accumulation of amyloid beta |
| SCSLPQ (listed as Mus musculus) [leptin (116-121)] | 43.61±3.9 | 58.1±4.0 | prevent the accumulation of amyloid beta |
| SCSLPQTSGLQKPES (listed as Mus musculus) [leptin (116-130)] | 40.9 ± 5.8 | 58.9 ± 4.6 | amyloid propagation following seeding is greatly reduced |
